The source made the active and inactive calls.
Experiments:
[1] = target: ALK tyrosine kinase receptor (Homo sapiens, UniProt Q9UM73); type: functional;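 note: ALK tested as one member of a kinase panel screen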
[2] = target: Cyclin-dependent kinase 19 (Homo sapiens, UniProt Q9BWU1); experiment: Navigating the Kinome. Panel member name: CDC2L6; type: functional
[3] = target: T1, Sentrin-specific protease 8 (Homo sapiens, UniProt Q96LD8); type: functional
T1 sequence (Q96LD8 whole entry): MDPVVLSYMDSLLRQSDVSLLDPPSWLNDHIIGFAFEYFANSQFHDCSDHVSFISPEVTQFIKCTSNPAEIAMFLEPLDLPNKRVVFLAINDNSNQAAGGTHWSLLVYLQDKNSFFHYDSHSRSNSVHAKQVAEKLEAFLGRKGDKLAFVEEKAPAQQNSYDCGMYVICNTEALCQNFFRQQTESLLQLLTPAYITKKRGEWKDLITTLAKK

[4] = target: T1, Sentrin-specific protease 8; type: functional; remark: listed apart in the source
[5] = target: Tyrosine-protein phosphatase non-receptor type 5 (Homo sapiens, UniProt P54829); experiment: PTPN5 enzyme inhibition – biochemical, fluorescence intensity, uHTS hits, confirmation (AID 602372); type: functional; details: read-out: IC50_Mean
Chain of Tyrosine-protein phosphatase non-receptor type 5 (P54829 whole entry): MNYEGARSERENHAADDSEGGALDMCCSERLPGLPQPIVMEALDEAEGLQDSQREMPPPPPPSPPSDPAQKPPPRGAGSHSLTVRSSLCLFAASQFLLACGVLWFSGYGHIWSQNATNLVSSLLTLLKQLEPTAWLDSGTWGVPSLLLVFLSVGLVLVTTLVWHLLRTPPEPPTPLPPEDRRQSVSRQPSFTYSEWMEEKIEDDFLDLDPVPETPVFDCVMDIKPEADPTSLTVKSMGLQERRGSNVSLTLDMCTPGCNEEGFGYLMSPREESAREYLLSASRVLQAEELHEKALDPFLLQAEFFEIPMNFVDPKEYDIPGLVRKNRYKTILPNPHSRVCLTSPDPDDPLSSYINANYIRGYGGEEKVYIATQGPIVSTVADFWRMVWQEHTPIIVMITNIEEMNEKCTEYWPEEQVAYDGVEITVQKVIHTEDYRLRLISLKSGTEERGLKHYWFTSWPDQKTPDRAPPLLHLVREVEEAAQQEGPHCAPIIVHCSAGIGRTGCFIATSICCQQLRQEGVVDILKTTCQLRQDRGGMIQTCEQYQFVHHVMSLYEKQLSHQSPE

cells [6] = type: functional, cell-based
[7] = target: Tyrosine-protein phosphatase non-receptor type 11 (Homo sapiens, UniProt Q06124); experiment: PTPN11 enzyme inhibitors – biochemical, selectivity assay for STEP inhibitor project, dose response (AID 602367); type: functional; details: read-out: IC50_Mean
cells [8] = type: functional, cell-based; remark: listed apart in the source
[9] = target: T2, Trace amine-associated receptor 1 (Homo sapiens, UniProt Q96RJ0); experiment: Fluorescence-based cell-based high throughput dose response assay to identify agonists of the human trace amine associated receptor 1 (TAAR1).; type: functional
T2 sequence (Q96RJ0 whole entry): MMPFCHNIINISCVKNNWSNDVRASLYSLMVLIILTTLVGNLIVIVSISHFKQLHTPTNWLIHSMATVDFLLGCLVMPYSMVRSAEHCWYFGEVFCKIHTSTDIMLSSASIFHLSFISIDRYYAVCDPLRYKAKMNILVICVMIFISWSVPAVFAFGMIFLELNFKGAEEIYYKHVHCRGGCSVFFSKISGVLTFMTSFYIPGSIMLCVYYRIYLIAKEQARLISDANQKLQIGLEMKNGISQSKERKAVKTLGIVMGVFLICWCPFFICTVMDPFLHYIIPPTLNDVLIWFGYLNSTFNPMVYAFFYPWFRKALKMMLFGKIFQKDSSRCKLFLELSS

[10] = target: Dual specificity protein phosphatase 3 (Homo sapiens, UniProt P51452); experiment: VHR phosphatase inhibition, dose response, selectivity assay for STEP inhibitor project, biochemical (AID 602374); type: functional; details: read-out: IC50_Mean
Chain of Dual specificity protein phosphatase 3 (P51452 whole entry): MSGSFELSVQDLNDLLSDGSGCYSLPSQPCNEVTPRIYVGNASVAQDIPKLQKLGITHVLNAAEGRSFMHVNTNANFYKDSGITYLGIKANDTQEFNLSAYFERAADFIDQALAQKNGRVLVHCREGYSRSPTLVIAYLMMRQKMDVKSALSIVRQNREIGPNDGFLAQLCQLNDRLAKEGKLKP

[11] = target: T2, Trace amine-associated receptor 1; experiment: Counterscreen for agonists of the human trace amine associated receptor 1 (hTAAR1): Fluorescence-based cell-based high throughput dose response assay to identify hTAAR1 agonist that also desensitize TAAR1 receptor response.; type: functional
Beta-lactamase [12] = target: Beta-lactamase (Pseudomonas aeruginosa, UniProt Q79MP6);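 note: biochemical dose-response test of metallo-beta-lactamase enzyme inhibition, read out by epi-absorbance; purified recombinant IMP-1 metallo-beta-lactamase with nitrocefin as substrate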
Chain of Beta-lactamase (Pseudomonas aeruginosa, UniProt Q79MP6) (Q79MP6 whole entry): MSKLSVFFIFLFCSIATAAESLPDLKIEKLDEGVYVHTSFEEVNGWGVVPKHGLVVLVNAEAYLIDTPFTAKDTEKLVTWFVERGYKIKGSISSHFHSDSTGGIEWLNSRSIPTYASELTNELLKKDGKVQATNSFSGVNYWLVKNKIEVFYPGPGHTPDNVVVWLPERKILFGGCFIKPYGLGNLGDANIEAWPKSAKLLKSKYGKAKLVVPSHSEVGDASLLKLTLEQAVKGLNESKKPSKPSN

Beta-lactamase [13] = target: Beta-lactamase (Salmonella choleraesuis (strain SC-B67), UniProt Q5J463)
Chain of Beta-lactamase (Salmonella choleraesuis (strain SC-B67), UniProt Q5J463) (Q5J463 whole entry): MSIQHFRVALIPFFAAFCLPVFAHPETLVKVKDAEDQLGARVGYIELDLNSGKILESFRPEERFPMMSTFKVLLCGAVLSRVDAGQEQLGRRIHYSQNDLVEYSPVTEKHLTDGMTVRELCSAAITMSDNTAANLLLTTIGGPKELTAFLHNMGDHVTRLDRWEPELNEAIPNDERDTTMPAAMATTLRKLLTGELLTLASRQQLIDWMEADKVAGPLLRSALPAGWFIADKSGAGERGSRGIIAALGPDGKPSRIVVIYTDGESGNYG

INS1 = experiment: INS-1E survival protection against cytokine death – cell-based, luminescence, retest, dose response (AID 449756); type: functional; details: Rattus norvegicus;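 note: cell death triggered by IL-1 beta plus TNF-alpha plus IFN-gamma mixture; protective hits raise ATP signal compared with cytokine alone wells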
HEK293 [14] = experiment: EBV LMP1 TES2 canonical NF-kB signalling blockers – cell-based, HEK293, luciferase, cherry-pick, dose response (AID 588343); type: functional; details: Homo sapiens
[15] = target: Nucleotide-binding oligomerization domain-containing protein 2 (Homo sapiens, UniProt Q9HC29); experiment: inhibition of NOD2-driven NF-kB reporter – cell-based, luminescence, uHTS, HEK293 (AID 1566); type: functional
Chain of Nucleotide-binding oligomerization domain-containing protein 2 (Q9HC29 whole entry, the tested form may be a part): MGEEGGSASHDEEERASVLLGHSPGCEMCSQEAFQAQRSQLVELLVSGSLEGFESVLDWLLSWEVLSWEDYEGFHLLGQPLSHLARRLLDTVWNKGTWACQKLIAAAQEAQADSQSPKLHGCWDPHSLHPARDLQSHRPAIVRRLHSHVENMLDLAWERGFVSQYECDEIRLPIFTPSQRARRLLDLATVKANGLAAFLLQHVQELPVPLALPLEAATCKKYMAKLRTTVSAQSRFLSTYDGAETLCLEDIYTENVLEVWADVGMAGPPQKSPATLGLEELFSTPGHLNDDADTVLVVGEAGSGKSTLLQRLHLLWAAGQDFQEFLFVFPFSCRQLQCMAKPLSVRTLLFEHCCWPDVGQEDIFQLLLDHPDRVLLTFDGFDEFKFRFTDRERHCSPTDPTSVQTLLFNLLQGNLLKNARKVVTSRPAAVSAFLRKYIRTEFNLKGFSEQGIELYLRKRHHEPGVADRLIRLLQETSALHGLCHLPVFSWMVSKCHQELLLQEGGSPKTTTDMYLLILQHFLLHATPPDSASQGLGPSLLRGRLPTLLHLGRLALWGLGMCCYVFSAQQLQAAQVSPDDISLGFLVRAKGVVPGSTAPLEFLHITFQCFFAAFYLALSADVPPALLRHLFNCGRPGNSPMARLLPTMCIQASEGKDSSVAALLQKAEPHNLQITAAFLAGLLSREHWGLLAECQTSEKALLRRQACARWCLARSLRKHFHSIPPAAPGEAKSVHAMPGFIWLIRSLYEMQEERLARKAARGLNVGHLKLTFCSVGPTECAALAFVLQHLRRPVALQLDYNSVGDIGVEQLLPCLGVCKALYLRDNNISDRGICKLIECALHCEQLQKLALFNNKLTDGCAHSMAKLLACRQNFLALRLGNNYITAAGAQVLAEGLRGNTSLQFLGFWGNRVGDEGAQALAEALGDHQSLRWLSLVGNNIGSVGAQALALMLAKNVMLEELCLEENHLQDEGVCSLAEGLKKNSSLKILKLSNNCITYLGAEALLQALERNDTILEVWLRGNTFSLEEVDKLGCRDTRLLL

Prothrombin = Prothrombin (Bos taurus, UniProt P00735); experiment: thrombin protease inhibitors – biochemical, fluorescence polarization, uHTS hits, dose response (AID 602369); type: functional
[16] = reduction of Shn3 3'UTR-driven luciferase in osteoblasts – cell-based, Clone20 osteoblasts, firefly luciferase, cherry-picked, dose response (AID 624132); type: functional;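 note: firefly luciferase luminescence from reporter carrying the Shn3 3'UTR in osteoblasts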
HEK293 [17] = experiment: cells; type: functional, cell-based; details: Homo sapiens
HEK293 [18] = experiment: cells; type: functional, cell-based; details: Homo sapiens; remark: listed apart in the source
[19] = target: 72 kDa type IV collagenase (Homo sapiens, UniProt P08253); experiment: Dose Response validation of uHTS RPN11 inhibitor hits using a MMP-2 Fluorescence assay.; type: functional
Chain of 72 kDa type IV collagenase (P08253 whole entry): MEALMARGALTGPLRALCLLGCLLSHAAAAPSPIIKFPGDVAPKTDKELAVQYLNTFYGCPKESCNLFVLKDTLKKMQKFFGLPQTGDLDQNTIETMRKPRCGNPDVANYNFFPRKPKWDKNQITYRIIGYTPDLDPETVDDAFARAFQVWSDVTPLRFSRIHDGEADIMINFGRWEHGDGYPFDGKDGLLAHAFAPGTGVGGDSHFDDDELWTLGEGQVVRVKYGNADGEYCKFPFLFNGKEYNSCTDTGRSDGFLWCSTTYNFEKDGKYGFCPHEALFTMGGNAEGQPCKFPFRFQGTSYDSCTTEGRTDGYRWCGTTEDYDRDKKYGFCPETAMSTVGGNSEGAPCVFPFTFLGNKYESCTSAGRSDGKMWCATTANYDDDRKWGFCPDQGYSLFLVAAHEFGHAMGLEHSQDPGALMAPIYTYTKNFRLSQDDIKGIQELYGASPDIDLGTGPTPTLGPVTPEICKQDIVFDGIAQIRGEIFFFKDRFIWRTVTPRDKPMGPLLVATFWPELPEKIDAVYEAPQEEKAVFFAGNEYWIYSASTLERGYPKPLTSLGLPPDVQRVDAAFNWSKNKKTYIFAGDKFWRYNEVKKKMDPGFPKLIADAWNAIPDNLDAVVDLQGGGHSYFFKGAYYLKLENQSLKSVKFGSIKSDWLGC

[20] = non-specific 3'UTR reporter inhibition in Clone20-Shn3RL – cell-based, Renilla luciferase, cherry-picked, counter-screen for Shn3 inhibitor project, dose response (AID 624133); type: functional
[21] = loss of viability in HepG2 cells – cell-based, CellTiter-Glo, cherry-picked, cytotoxicity control for Shn3 inhibitor project, dose response (AID 624134); type: functional
HEK293 [22] = experiment: cells; type: functional, cell-based; details: Homo sapiens; remark: listed apart in the source
Tumor necrosis factor = Tumor necrosis factor (Homo sapiens, UniProt P01375); experiment: analog potency on TNFa NF-kB signaling – cell-based, revised, SAR follow-up (AID 2337); type: functional
Chain of Tumor necrosis factor (P01375 whole entry): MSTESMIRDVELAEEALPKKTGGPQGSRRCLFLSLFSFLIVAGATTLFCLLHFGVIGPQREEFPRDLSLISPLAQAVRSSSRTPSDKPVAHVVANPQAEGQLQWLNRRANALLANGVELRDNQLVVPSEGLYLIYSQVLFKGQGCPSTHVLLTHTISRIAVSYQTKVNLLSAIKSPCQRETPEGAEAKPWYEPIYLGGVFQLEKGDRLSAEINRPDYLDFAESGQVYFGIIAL

HEK293 [23] = experiment: NOD2 signaling inhibitors in MDP-stimulated cells, cell-based, uHTS, luminescence (AID 2001); type: functional; details: Homo sapiens
[24] = target: T3, Nucleotide-binding oligomerization domain-containing protein 1 (Homo sapiens, UniProt Q9Y239); experiment: blockers of NOD1 pathway activity – revised, SAR follow-up (AID 2333); type: functional
T3 sequence (Q9Y239 whole entry): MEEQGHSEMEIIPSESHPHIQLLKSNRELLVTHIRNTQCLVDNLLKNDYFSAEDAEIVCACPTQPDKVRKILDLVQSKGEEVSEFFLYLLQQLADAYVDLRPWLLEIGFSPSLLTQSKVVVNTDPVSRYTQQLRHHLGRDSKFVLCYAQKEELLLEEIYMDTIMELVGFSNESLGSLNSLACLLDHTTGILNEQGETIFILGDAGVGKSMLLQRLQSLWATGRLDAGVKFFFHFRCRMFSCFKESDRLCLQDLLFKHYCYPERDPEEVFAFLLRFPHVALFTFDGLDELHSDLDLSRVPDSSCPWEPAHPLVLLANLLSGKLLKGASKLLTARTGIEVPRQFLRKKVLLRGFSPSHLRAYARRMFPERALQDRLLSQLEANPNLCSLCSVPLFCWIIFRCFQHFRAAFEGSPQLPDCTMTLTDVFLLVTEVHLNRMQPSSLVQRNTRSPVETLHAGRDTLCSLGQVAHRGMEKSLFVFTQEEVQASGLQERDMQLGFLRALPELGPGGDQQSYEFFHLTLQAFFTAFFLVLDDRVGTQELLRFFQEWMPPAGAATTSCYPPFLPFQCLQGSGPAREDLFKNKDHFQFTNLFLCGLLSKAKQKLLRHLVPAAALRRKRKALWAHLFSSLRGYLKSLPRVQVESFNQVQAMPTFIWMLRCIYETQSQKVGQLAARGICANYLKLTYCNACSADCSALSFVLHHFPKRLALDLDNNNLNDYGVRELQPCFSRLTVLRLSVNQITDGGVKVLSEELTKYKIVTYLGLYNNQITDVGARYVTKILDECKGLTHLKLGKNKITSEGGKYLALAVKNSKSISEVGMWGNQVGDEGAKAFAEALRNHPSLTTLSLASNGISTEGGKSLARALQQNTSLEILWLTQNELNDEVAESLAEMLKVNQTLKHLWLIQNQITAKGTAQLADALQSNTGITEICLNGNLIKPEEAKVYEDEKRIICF

HEK293 [25] = experiment: cells; details: Homo sapiens
[26] = target: 26S proteasome non-ATPase regulatory subunit 14 (Homo sapiens, UniProt O00487); experiment: inhibition of proteasome subunit RPN11 – biochemical, fluorescence polarization, uHTS hits, confirmation (AID 602368); type: functional
Chain of 26S proteasome non-ATPase regulatory subunit 14 (O00487 whole entry): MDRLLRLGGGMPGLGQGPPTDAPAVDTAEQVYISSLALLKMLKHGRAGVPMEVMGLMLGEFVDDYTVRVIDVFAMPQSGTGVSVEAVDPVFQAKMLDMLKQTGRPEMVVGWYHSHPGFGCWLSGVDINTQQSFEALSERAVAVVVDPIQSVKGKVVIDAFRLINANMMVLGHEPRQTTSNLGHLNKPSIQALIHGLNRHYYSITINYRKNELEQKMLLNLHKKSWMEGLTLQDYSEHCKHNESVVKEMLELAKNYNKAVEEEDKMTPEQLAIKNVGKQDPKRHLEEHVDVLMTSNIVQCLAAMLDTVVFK

HEK293 [27] = experiment: inhibition of NOD1-driven NF-kB reporter – cell-based, luminescence, uHTS, primary screen (AID 1578); type: functional; details: Homo sapiens
[28] = target: T4, Beta-2 adrenergic receptor (Homo sapiens, UniProt P07550); experiment: Dose response for HTS for Beta-2AR agonists via FAP method from Powderset3.; type: functional
T4 sequence (P07550 whole entry): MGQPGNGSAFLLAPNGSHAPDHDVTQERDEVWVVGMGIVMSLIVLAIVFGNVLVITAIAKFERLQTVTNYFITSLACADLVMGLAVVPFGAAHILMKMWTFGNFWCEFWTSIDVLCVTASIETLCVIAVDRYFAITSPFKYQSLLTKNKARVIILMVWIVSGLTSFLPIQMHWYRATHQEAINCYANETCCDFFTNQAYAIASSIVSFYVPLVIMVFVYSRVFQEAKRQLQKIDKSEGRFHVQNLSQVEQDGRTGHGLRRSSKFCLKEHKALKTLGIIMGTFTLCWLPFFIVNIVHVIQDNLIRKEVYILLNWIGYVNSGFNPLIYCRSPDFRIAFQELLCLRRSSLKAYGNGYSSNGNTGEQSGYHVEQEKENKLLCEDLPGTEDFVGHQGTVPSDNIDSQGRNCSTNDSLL

[29] = target: T4, Beta-2 adrenergic receptor; experiment: ADRB2 activation measured by internalization – cell-based, FAP fluorogen, flow cytometry, cherry pick 1, dose response (AID 588763); type: functional

Chain of Cyclin-dependent kinase 19 (Q9BWU1 whole entry): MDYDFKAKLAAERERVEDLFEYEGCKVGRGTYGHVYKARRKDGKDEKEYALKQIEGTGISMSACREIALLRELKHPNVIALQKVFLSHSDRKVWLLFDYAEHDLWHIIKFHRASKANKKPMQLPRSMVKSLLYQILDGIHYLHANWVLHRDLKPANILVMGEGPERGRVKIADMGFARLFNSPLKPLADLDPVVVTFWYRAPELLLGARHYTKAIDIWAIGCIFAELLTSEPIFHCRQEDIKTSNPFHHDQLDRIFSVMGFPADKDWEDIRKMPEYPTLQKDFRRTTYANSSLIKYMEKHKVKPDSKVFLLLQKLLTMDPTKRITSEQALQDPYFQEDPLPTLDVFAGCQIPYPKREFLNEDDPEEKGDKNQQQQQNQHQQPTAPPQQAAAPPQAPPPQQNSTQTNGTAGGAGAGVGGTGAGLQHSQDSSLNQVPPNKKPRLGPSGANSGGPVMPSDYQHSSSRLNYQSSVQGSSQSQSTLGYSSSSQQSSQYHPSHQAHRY

Cc1nn(-c2nc3ccccc3[nH]2)c(O)c1C1OC(=O)c2ccccc21 (configuration not stated)
Ki [1]: 0.2 µM (active) | Ki [2]: 2 µM (active)

O=C(COC(=O)c1ccc([N+](=O)[O-])o1)NCc1ccc2c(c1)OCO2
IC50 [3]: 11.1 µM (active) | IC50 [4]: 5.11 µM (active)

NS(=O)(=O)c1ccc(N/C(S)=N\CCc2ccccc2)cc1
IC50 [5]: > 80 µM (inactive) | IC50 (cells [6]): > 29.9 µM (inactive) | IC50 [7]: 5.84 µM (active) | EC50 (cells [8]): > 29.9 µM (inactive) | EC50 [9]: 2.56 µM (active) | IC50 [10]: 3.17 µM (active) | IC50 [11]: 7.06 µM (active)

CC(=O)Nc1ccc(N2C(=O)c3cccc4c(O)ccc(c34)C2=O)cc1
IC50 (Beta-lactamase [12]): 13.7 µM (inactive) | IC50 (Beta-lactamase [13]): 7 µM (active)

Cc1ccc(NC(=O)C2CCN(S(=O)(=O)c3ccc4c(c3)NC(=O)C(C)S4)CC2)cc1Cl (configuration not stated)
AC50 (INS1): 3.7 µM (active) | AC50 (HEK293 [14]): 15.3 µM (active) | EC50 [15]: 8.36 µM (active) | IC50 (Prothrombin): 46 µM (active) | AC50 [16]: 2.83 µM (active) | IC50 (HEK293 [17]): > 20 µM (inactive) | IC50 (HEK293 [18]): 4.25 µM (active) | IC50 [19]: > 100 µM (inactive) | AC50 [20]: 2.48 µM (active) | AC50 [21]: 6.82 µM (active) | IC50 (HEK293 [22]): 2.72 µM (active) | IC50 (Tumor necrosis factor): 2.84 µM (active) | IC50 (HEK293 [23]): 2.94 µM (inactive) | IC50 [24]: 2.87 µM (active) | IC50 (HEK293 [25]): 5.08 µM (active) | IC50 [26]: 49.4 µM (active) | EC50 (HEK293 [27]): 5.35 µM (active)

CC(=O)Nc1ccc(S(=O)(=O)N2CCC(Oc3ccc(-n4cnnn4)cc3)CC2)cc1
EC50 [28]: 0.0366 µM (active) | EC50 [29]: 0.126 µM (active)

From ChEMBL document CHEMBL1201862, “PubChem BioAssay data set” (2004)
